In brackets after ≈: the same amount, converted by molar mass. Read-outs that look alike come from different tables or passages of the source. Marks after values point to notes of the source that are not given here.
B1: rD2BPL3 (recombinant BPL3 lectin obtained by the gene having the repeating structure) (protein, part only; not given: spacer and vector tag, not shown: small tags and cut ends)
chain, part: TDVGSVQVRGLGDRSSCPVKPWTTAQTSAREKVVSVKFDIPYSSTPKVALSLSGMDMDTKYNTRINTSVENLTNEGFDLKVGVWCNTYAYMLDVTYVVVPAPYAAGTDVGSVQVRGLGDRSSCPVKPWTTAQTSAREKVVSVKFDIPYSSTPKVALSLSGMDMDTKYNTRINTSVENLTNEGFDLKVGVWCNTYAYMLDVTYVVVPAPYAAG
B2: Fetuin (protein, UniProt P12763 19-359, looked up)
Alpha-2-HS-glycoprotein: IPLDPVAGYKEPACDDPDTEQAALAAVDYINKHLPRGYKHTLNQIDSVKVWPRRPTGEVYDIEIDTLETTCHVLDPTPLANCSVRQQTQHAVEGDCDIHVLKQDGQFSVLFTKCDSSPDSAEDVRKLCPDCPLLAPLNDSRVVHAVEVALATFNAESNGSYLQLVEISRAQFVPLPVSVSVEFAVAATDCIAKEVVDPTKCNLLAEKQYGFCKGSVIQKALGGEDVRVTCTLFQTQPVIPQPQPDGAEAEAPSAVPDAAGPTPSAAGPPVASVVVGPSVVAVPLPLHRAHYDLRHTFSGVASVESSSGEAFHVGKTPIVGQPSIPGGPVRLCPGRIRYFKI
B3: Native BPL3: BPL3 (Bryopsis plumosa lectin) derived from bryopsis plumosa, comparative target (protein)
chain: TDVGSVQVRGLGDRSSCPVKPWTTAQTSAREKVVSVKFDIPYSSTPKVALSLSGMDMDTKYNTRINTSVENLTNEGFDLKVGVWCNTYAYMLDVTYVVVPAPYAAG
modifications: bryopsis plumose-derived BPL3 gene
notes: BPL3 (Bryopsis plumosa lectin) derived from bryopsis plumosa, comparative target

Columns and labels:
[1] = tested on: Native BPL3; experiment: Inhibition of hemagglutination activity of Native BPL3 by sugars; assay type: cell-based, Bryopsis plumosa
[2] = tested on: rD2BPL3; experiment: Inhibition of hemagglutination activity of rD2BPL3 (refolded rBPL3) by sugars; assay type: cell-based, Bryopsis plumosa; settings: for Minimum inhibitory concentration: inhibition of hemagglutination activity of rD2BPL3; for Concentration at which hemagglutination activity of rBPL3 was inhibited: refolded rBPL3, FIG. 8, running text
Method: FIG. 8 is a photograph showing that the activity of the refolded rBPL3 is inhibited by N-acetyl D-glucosamine and N-acetyl D-glactosamine. Referring to FIG. 8, experiments on inhibition of hemagglutination activity for 10 kinds of sugars including GlcNAc and GaINAc which inhibited hemagglutination activity of Native BPL3 were conducted.

[3] = target: Fetuin; experiment: cell-based or functional assay
[4] = Glycan binding specificity, RayBio Glycan Array 100
Method: Affinity with glycans was measured using RayBio® Glycan Array 100. The rBPL3 and the Native BPL3 were conjugated with biotin and then dialyzed to remove unreacted biotin.
FIG. 9 is a graph for comparing glycan binding specificities of Native BPL3, rD1BPL3, and rD2BPL3.

[5] = biotin-conjugated lectin, FIG. 9

Row | Molecule | Minimum inhibitory concentration [1] | Minimum inhibitory concentration [2] | also measured
1 | OC[C@H]1O[C@@H](O[C@H]2[C@H](O)[C@@H](O)[C@H](O)O[C@@H]2CO)[C@H](O)[C@@H](O)[C@H]1O [β-Lactose] | NI (the absence of inhibition at 500 mM) | NI (the absence of inhibition at 500 mM) | –
2 | O=C[C@@H](O)[C@@H](O)[C@H](O)[C@H](O)CO [d-Mannose] | NI (the absence of inhibition at 500 mM) | NI (the absence of inhibition at 500 mM) | Minimum inhibitory concentration ([1]; listed as α-Man): not inhibited; Minimum inhibitory concentration ([2]; listed as α-Man): not inhibited
3 | O=C[C@H](O)[C@@H](O)[C@H](O)[C@H](O)CO [d-Glucose] | NI (the absence of inhibition at 500 mM) | NI (the absence of inhibition at 500 mM) | –
4 | Native BPL3 (Bryopsis plumosa lectin 3 derived from Bryopsis plumosa) | – | – | Minimum inhibitory concentration (inhibition of hemagglutination activity) [3]: 19.5 µg/mL
5 | CC(=O)N[C@H]1C(O)O[C@H](CO)[C@H](O)[C@@H]1O (stereo partly drawn) [N-acetyl-d-galactosamine] | 62.5 mM (≈ 13.8 mg/mL) | 31.25 mM (≈ 6.91 mg/mL) | Concentration at which hemagglutination activity of rBPL3 was inhibited [2]: 62.5 mM
6 | OC[C@H]1O[C@H](O[C@H]2[C@H](O)[C@@H](O)[C@H](O)O[C@@H]2CO)[C@H](O)[C@@H](O)[C@@H]1O [d-Maltose] | NI (the absence of inhibition at 500 mM) | NI (the absence of inhibition at 500 mM) | –
7 | O=C(CO)[C@@H](O)[C@H](O)[C@H](O)CO [d-Fructose] | NI (the absence of inhibition at 500 mM) | NI (the absence of inhibition at 500 mM) | –
8 | CC(=O)N[C@H]1C(O)O[C@H](CO)[C@@H](O)[C@@H]1O (stereo partly drawn) [N-acetyl-d-glucosamine] | 125 mM (≈ 27.7 mg/mL) | 62.5 mM (≈ 13.8 mg/mL) | Concentration at which hemagglutination activity of rBPL3 was inhibited [2]: 125 mM
9 | O=C[C@H](O)[C@@H](O)[C@@H](O)[C@H](O)CO [d-Galactose] | NI (the absence of inhibition at 500 mM) | NI (the absence of inhibition at 500 mM) | –
10 | C[C@@H]1OC(O)[C@@H](O)[C@H](O)[C@@H]1O (stereo partly drawn) [1-Fucose] | NI (the absence of inhibition at 500 mM) | NI (the absence of inhibition at 500 mM) | –
11 | B1 | – | – | Minimum inhibitory concentration (inhibition of hemagglutination activity) [3]: 4.88 µg/mL
12 | B2 | – | – | Minimum inhibitory concentration ([1]; concentration in μg/mL): 19.53^§ μg/mL; Minimum inhibitory concentration ([2]; concentration in μg/mL): 4.88^§ μg/mL
13 | B3 | – | – | Glycan giving a strong signal [4, 5]: strong signal for a glycan of Gal-β-1,3-GaINAc-α-Sp; Number of glycans reacted with, of 100 glycans [4, 5]: 5; Binding to α-Man-Sp ([4]; glycan array): specifically bound; Binding to β-GlcNAc-Sp ([4]; glycan array): does not react
